Test results as given in patent US20240410879A1, “NEMATODE-SEALED CAPSULE, METHOD FOR PRODUCING NEMATODE-SEALED CAPSULE, AND USE OF NEMATODE-SEALED CAPSULE” (NATIONAL INSTITUTES FOR QUANTUM SCIENCE AND TECHNOLOGY, priority 2021, published 2024).

Tests used:
C. elegans [1] = test: Hatching inhibitor (FUdR) treatment of adult nematodes: hatching of laid eggs on culture plate and in capsule; assay type: in vivo, Caenorhabditis elegans
Experimental: A dose of a chemical agent required to make all eggs laid by a generation treated with the chemical agent unable to hatch varies depending on, for example, the type, the developmental stage or the sex of the nematode, a type of the chemical agent, or a treatment (exposure) time. For example, in a case where an FUdR solution is added to the culture plate and a nematode which is an adult hermaphrodite of C. elegans prior to laying eggs is exposed to the FUdR solution for a day, a sterilization dose at which the hatching rate of the next generation becomes 0% is not less than 0.5 mg/mL. Exposure of the adult nematode prior to laying eggs to the chemical agent of a dose lower than the sterilization dose allows for making adjustment so that only a certain percentage of eggs hatch.
The nematodes were cultured on the plate to which E. coli had been applied, until the nematodes became adult nematodes (before start of egg laying) on the third day after hatching. FUdR solution was added to this nematode culture plate, and the nematodes were cultured for another day. The FUdR solution was prepared by dissolving 5 mg of FUdR powder in 10 mL of sterile ultrapure water and stirring.
Adult nematodes on the fourth day after hatching which had been exposed to a hatching inhibitor for one day were collected together with E. coli from the culture plate with use of the platinum wire picker. Then, the nematodes were dropped in the aqueous sol which was the same as that prepared in Example 1, so that a sterilized adult nematode sol was prepared. Next, a micropipette was used to suck out the nematode sol. The nematode sol was then dropped in a calcium lactate solution which filled a plastic dish, and immersed in the calcium lactate solution for approximately 5 minutes. The hatching inhibitor-treated nematode-encapsulated capsule in which the adult nematodes that had been exposed to the hatching inhibitor and E. coli that would be food were encapsulated. At the end, a sterilized-nematode-encapsulated capsule was taken out from the calcium lactate solution and an outer phase membrane of this capsule was washed with ultrapure water.
An image of a spherical capsule in which approximately 10 adult nematodes on the fourth day after hatching and having undergone a hatching inhibition treatment by exposure to FUdR were encapsulated was captured from above with use of a digital camera attached to a microscope and the spherical capsule was observed, every 24 hours (every day) from immediately after the production of the spherical capsule. […] After one day and also after two days, it was possible to observe a state in which the adult nematodes moved inside the capsule. […]

C. elegans [2] = conditions: in vivo
Source text: Next, the nematodes having been grown in the nematode-encapsulated capsule were taken out, and locomotion of the nematodes was observed. As in Example 4, a hatching inhibitor-treated nematode-encapsulated capsule obtained two days after production of the capsule was transferred to a plate A1 with a tweezer, and the capsule was picked a plurality of times with a sterile toothpick, so that the inside of the capsule was exposed.

C. elegans [3] = test: Chemotaxis assay to volatile substance on plate A3, conventional nematode supply method (Comparative Example 2); assay type: in vivo, Caenorhabditis elegans; conditions: mean of three assays, FIG. 20
Experimental: Assuming that the total number of nematodes caught in the two left fall-in cavities filled with the test solution was N1 and the total number of nematodes caught in the two right fall-in cavities filled with the control buffer solution was N2, a value obtained according to the following formula was defined as a chemotaxis index (C.I.). Then, the response was evaluated. Chemotaxis index (C. I.)=(N1−N2)/(N1+N2). As Comparative Example, evaluation of response of nematodes was carried out on the basis of a conventionally-known method for supplying nematodes. Used was a plate A3 which was identical to that used in Example 10 and in which two sets of two fall-in cavities were formed on left and right sides in symmetrical positions. A test solution was diluted solutions of diacetyl at two different concentrations as in Example 10. Note that the above dilution was conducted with use of a buffer solution, which served as a control. A nematode liquid containing nematodes having been washed in advance with wash buffer was dropped onto the center of the nematode assay plate, and a liquid component was wiped out with a paper wiper. Then, the nematodes were released on the plate. The plate was covered with a lid and sealed with a paraffin film. […] Thereafter, the number of nematodes caught in the fall-in cavities was counted.

C. elegans [4] = test: Chemotaxis assay to volatile substance on nematode trap plate A3, nematodes supplied from nematode-encapsulated capsule (Example 10); assay type: in vivo, Caenorhabditis elegans; conditions: capsule supply, mean of two assays, FIG. 19
Experimental: An assay for evaluating response of nematodes to a volatile substance was conducted with use of diacetyl (having a molarity of 11.5 M at 15° C.), which is a kind of volatile substance, and diluted solutions prepared by diluting the diacetyl by two different dilution factors of 10 and 10^5. Note that the assay method was a method using a nematode trap plate. […]
Next, several nematode-encapsulated capsules in which nematode eggs were encapsulated and grown to adult nematodes were each picked with a tip of a micropipette chip, so that an outer phase membrane was broken. […] Thereafter, the number of nematodes caught in the fall-in cavities was counted.
Assuming that the total number of nematodes caught in the two left fall-in cavities filled with the test solution was N1 and the total number of nematodes caught in the two right fall-in cavities filled with the control buffer solution was N2, a value obtained according to the following formula was defined as a chemotaxis index (C.I.). Then, the response was evaluated. […]

[5] = 10-fold diluted solution of diacetyl
[6] = 10^5-fold diluted solution of diacetyl

Row | Structure (SMILES) | hatching of eggs laid on culture plate to which FUdR was added (C. elegans [1]; FUdR solution 5 mg in 10 mL added to culture plate, adults from third day after hatching cultured another day) | sterilization dose at which the hatching rate of the next generation becomes 0% (C. elegans [1]; FUdR solution added to culture plate, adult hermaphrodite of C. elegans prior to laying eggs exposed for a day) | hatching of eggs laid in capsule by adult nematodes exposed to FUdR (C. elegans [1]; approximately 10 adults on fourth day after hatching, exposed one day on plate, encapsulated, observed up to two days after production) | hatching result with nematodes cultured for one day in culture solution containing FUdR (C. elegans [1]; culture solution containing FUdR instead of culture plate, nematode-encapsulated capsule) | locomotion of adult nematodes escaped from capsule (C. elegans [2]) | Chemotaxis index (C.I.) (C. elegans [3]; [5]) | Chemotaxis index (C.I.) (C. elegans [3]; [6]) | Chemotaxis index (C.I.) (C. elegans [4]; [5]) | Chemotaxis index (C.I.) (C. elegans [4]; [6])
1 | O=c1[nH]c(=O)n([C@H]2C[C@H](O)[C@@H](CO)O2)cc1F [FUdR, 5-Fluoro-2′-deoxyuridine] | the eggs did not hatch | not less than 0.5 mg/mL | did not hatch, and no larvae were observed | a result similar to that obtained by culturing on the culture plate to which the FUdR solution was added could be obtained | No remarkable abnormality in locomotion was observed | – | – | – | –
2 | CC(=O)C(C)=O [diacetyl] | – | – | – | – | – | negative | positive | negative | positive
